Data: patent US20200405696A1, “INHIBITORS OF INDOLEAMINE 2,3-DIOXYGENASE AND/OR TRYPTOPHAN 2,3-DIOXYGENASE” (IDORSIA PHARMACEUTICALS LTD, priority 2018, published 2020)

Legend:
[1] = target: T1, Recombinant human TDO comprising amino acids 19-407 (Homo sapiens, UniProt P48775); assay: TDO2 enzymatic assay (NFK quantified by LCMS); format: biochemical; conditions: 15 nM enzyme, 200 μM L-tryptophan, pH7, 30 minutes pre-incubation at RT; mean values when measured multiple times; read-out: hTDO activity (IC50 in nM)
T1 construct: Recombinant human TDO comprising amino acids 19-407 with a N-terminal hexahistidine tag; hexahistidine (His6) (N); made in house; host or cells: E. coli
T1 sequence (P48775 19-406 limits assumed): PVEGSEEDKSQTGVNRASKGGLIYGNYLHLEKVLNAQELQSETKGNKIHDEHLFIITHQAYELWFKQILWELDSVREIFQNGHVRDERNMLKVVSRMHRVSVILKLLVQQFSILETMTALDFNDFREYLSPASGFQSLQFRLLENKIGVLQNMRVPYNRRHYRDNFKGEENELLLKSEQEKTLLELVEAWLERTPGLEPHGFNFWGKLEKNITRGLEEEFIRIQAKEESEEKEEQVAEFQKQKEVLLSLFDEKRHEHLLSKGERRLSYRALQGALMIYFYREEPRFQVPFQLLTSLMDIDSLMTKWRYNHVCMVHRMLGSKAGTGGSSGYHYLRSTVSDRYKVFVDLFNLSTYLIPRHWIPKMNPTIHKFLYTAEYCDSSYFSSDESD
Procedure, shortened: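 NFK formed over 30 min at RT from 200 μM L-tryptophan was measured by LCMS, normalized to d5-tryptophan, after compound (0.5 nM–10 μM, duplicates, 0.6% DMSO) was preincubated 30 min with 15 nM recombinant His-tagged TDO 19-407 in phosphate buffer pH 7. IC50 from four-parameter logistic fit; repeats averaged.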

[2] = target: T2, Recombinant full-length human IDO1 (Homo sapiens, UniProt P14902); assay: IDO1 enzymatic assay (NFK quantified by LCMS); format: biochemical; conditions: 2 nM enzyme, 5 μM L-tryptophan, pH6.5, 30 minutes pre-incubation at RT; mean values when measured multiple times; read-out: hIDO activity (IC50 in nM)
T2 construct: Recombinant full-length human IDO1 with a N-terminal hexahistidine tag; hexahistidine (His6) (N); made in house; host or cells: E. coli
T2 sequence (P14902 whole entry): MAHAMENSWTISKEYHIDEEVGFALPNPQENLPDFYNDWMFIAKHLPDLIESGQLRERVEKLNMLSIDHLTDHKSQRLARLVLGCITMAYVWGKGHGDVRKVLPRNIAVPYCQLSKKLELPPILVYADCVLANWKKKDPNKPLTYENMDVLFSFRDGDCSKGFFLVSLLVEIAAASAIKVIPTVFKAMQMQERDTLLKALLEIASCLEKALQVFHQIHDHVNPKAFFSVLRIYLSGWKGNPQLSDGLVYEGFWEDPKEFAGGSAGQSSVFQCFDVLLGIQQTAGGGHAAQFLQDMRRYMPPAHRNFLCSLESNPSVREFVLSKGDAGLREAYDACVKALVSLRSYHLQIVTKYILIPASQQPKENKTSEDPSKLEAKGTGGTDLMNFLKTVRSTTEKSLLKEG
Procedure, shortened: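 IC50 comes from four-parameter logistic fits of duplicate data, with NFK quantified by LCMS and normalized to L-Trp-(indole-d5). Compound (0.5 nM–10 μM) was preincubated 30 min at RT with 2 nM E. coli-expressed IDO1 before a 30 min reaction with 5 μM tryptophan in pH 6.5 buffer containing ascorbate and methylene blue.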

| Structure (SMILES) | IC50 [1] [nM] | IC50 [2] [nM] |
| --- | --- | --- |
| CCc1sc2cncn2c1C(O)c1cn(-c2ccc(C(=O)N3CCOCC3)cc2)nn1 (racemic) [Example 117, rac-(4-{4-[(2-Ethyl-imidazo[5,1-b]thiazol-3-yl)-hydroxy-methyl]-[1,2,3]triazol-1-yl}-phenyl)-morpholin-4-yl-methanone] | > 10200 | 93.3 |
| CCc1sc2cncn2c1C(O)c1cn(-c2ccc3[nH]c(=O)[nH]c3c2)nn1 (racemic) [Example 112, rac-5-{4-[(2-Ethyl-imidazo[5,1-b]thiazol-3-yl)-hydroxy-methyl]-[1,2,3]triazol-1-yl}-1,3-dihydro-benzoimidazol-2-one] | 6220 | 45.6 |
| OC(c1nnc(-c2ccccc2)o1)c1c(C2CC2)sc2cncn12 (racemic) [Example 157, rac-(2-Cyclopropyl-imidazo[5,1-b]thiazol-3-yl)-(5-phenyl-[1,3,4]oxadiazol-2-yl)-methanol] | > 10200 | 586 |
| CCc1sc2cncn2c1C(O)c1cn(-c2ccc(C(=O)NCCN(C)C)cc2)nn1 (racemic) [Example 119, rac-N-(2-Dimethylamino-ethyl)-4-{4-[(2-ethyl-imidazo[5,1-b]thiazol-3-yl)-hydroxy-methyl]-[1,2,3]triazol-1-yl}-benzamide] | 9720 | 133 |
| COc1ccc(-n2cc(C(O)c3c(C4CC4)sc4cncn34)nn2)c(C)c1 (racemic) [Example 306, rac-(2-Cyclopropyl-imidazo[5,1-b]thiazol-3-yl)-[1-(4-methoxy-2-methyl-phenyl)-1H-[1,2,3]triazol-4-yl]-methanol] | > 10200 | 17.9 |
| COc1ccc(-n2nnc(C(O)c3c(C4CC4)sc4cncn34)c2C)cc1Cl (racemic) [Example 295, rac-[1-(3-Chloro-4-methoxy-phenyl)-5-methyl-1H-[1,2,3]triazol-4-yl]-(2-cyclopropyl-imidazo[5,1-b]thiazol-3-yl)-methanol] | 8840 | 6.63 |

Now from value to compound:

| IC50 [1] [nM] | IC50 [2] [nM] | Structure (SMILES) |
| --- | --- | --- |
| > 10200 | 31.6 | COCc1ccc(-n2cc(C(O)c3c(C4CC4)sc4cncn34)nn2)cc1 (racemic) [Example 330, rac-(2-Cyclopropyl-imidazo[5,1-b]thiazol-3-yl)-[1-(4-methoxymethyl-phenyl)-1H-[1,2,3]triazol-4-yl]-methanol] |
| 1040 | 2.7 | CCc1sc2cncn2c1[C@@H](O)c1cn(-c2ccc(NC(=O)OC)cc2)nn1 [Example 49a, (4-{4-[(R)-(2-Ethyl-imidazo[5,1-b]thiazol-3-yl)-hydroxy-methyl]-[1,2,3]triazol-1-yl}-phenyl)-carbamic acid methyl ester] |
| > 10200 | 24.2 | OC(c1cn(-c2ccccc2)nn1)c1c(C(F)(F)F)sc2cncn12 (racemic) [Example 133, rac-(1-Phenyl-1H-[1,2,3]triazol-4-yl)-(2-trifluoromethyl-imidazo[5,1-b]thiazol-3-yl)-methanol] |
| > 10200 | 13 | CC(F)(F)c1sc2cncn2c1C(O)c1cn(-c2ccc(OCC3(F)COC3)c(Cl)c2)nn1 (racemic) [Example 316, rac-{1-[3-Chloro-4-(3-fluoro-oxetan-3-ylmethoxy)-phenyl]-1H-[1,2,3]triazol-4-yl}-[2-(1,1-difluoro-ethyl)-imidazo[5,1-b]thiazol-3-yl]-methanol] |
| > 10200 | 109 | CCc1sc2cncn2c1C(O)c1cn(-c2ccc(C(=O)N(C)CC)cc2)nn1 (racemic) [Example 124, rac-N-Ethyl-4-{4-[(2-ethyl-imidazo[5,1-b]thiazol-3-yl)-hydroxy-methyl]-[1,2,3]triazol-1-yl}-N-methyl-benzamide] |
| 2300 | 23.8 | O=[N+]([O-])c1cc(-n2cc(C(O)c3c(-c4ccccc4)sc4cncn34)nn2)ccc1O (racemic) [Example 250, rac-4-{4-[Hydroxy-(2-phenyl-imidazo[5,1-b]thiazol-3-yl)-methyl]-[1,2,3]triazol-1-yl}-2-nitro-phenol] |
